Laboratory results from patent US8614230B2, “Derivatives of the aminated hydroxyquinoline class for treating cancers” (Biopharmed, priority 2007, dated 2013).
Like-named read-outs stand apart in the source and are kept apart here.

Legend:
KB cells = assay: Cytotoxicity / cell viability on KB cells (colony-forming assay); type: cell-based, human; details: for Cytotoxicity on KB cells (percentage inhibition of cell viability): relative to reference without compound
Protocol: Cancerous KB cells are also considered, to determine the cell viability (or survival rate). This cell viability is determined according to the teaching of Nicholson K. M. et al., British Journal of Cancer, 1999, 81, 423-430.
KB cells are human carcinoma cell lines, KB-3-1. These cells are maintained in a culture medium, “Dulbecco's modified Eagle's medium” (DMEM—Sigma), which contains 0.11 g/l of sodium pyruvate and 4.5 g/l of glucose, supplemented with 10% (v/v) fetal calf serum, penicillin (32 μg/ml) and streptomycin (50 μg/ml). The cells are cultured as monolayers and are incubated at 37° C. in a humid atmosphere (95% air/5% CO2).
The preceding KB cells are then incubated in 6- or 96-well plates in the presence of the test compounds of the invention, dissolved in dimethyl sulfoxide (DMSO). The content of surviving cells is measured by the “colony-forming assay” test, in which the cells are redistributed at a density of 100 to 300 cells per well in 24-well plates, for a period of 8 days, and are then stained with Leishman's reagent (0.2% in methanol). The colonies of more than 50 cells are counted visually under a microscope, the survival rate being expressed on the colonies formed in the presence of the compounds of the invention relative to cell colonies not treated with said compounds. The determination of the IC50 values (concentration of compounds in the reaction medium for which 50% of the tested tumor cells survived the treatment) enables comparison of the efficacy of these compounds.

U87/GFP cells [1] = assay: Antiproliferative effect on U87/GFP cells (flash cytometry); type: cell-based, human; details: for inhibition at 10 µM / inhibition at 2 µM: read-out: Antiproliferative effect on U87/GFP cells: percentage inhibition
Protocol: For the U-87/GFP cells, the control of cell proliferation and migration in the presence of the compounds (I) of the invention is performed via a colorimetric method (MTS) and is performed according to known standard protocols. The methodologies implemented use flash cytometry (Trophos S.A., Marseilles, France). The flash cytometry technique involves fluorescence, which consists of irradiating a compound at a set wavelength and of recording the fluorescence emitted at another wavelength. This technique is performed with a flash cytometer and adapted for 96-well test plates. The excitation and emission wavelengths in the context of use of this fluorescence are located in the 485-495 nm range. The measured fluorescence expresses the amount of cells surviving after treatment with the compounds of the invention. The publications by Luby-Phelps K. et al., J. Histochemistry and Cytometry, 2003, 51, 271-274 and Modarai B. et al., Circulation, 2005, 111, 2645-2653 may be mentioned by way of reference for the above methods.
The cells of the U87/GFP lines are cultured in 96-well plates according to a standard methodology described by Bajetto et al., Neurochemistry International, 2006, 43, 31-38 in the presence of different concentrations of the compounds of the invention.
The cell proliferation is determined and quantified according to standard methods known to those skilled in the art. A 100% proliferation is attributed to the untreated cells and a percentage less than 100% is obtained when the same cells are treated with the compounds of the invention.
(§1) The cell proliferation and migration are determined by imaging using a flash cytometer (Trophos S.A., Marseilles, France), and the calculations are performed using the “Metamorph 4.6” imaging signal processing software (Molecular Devices, USA), the use of which, which is known in the field, makes it possible to determine the above two effects independently of each other.

U87/GFP cells [2] = assay: Antimigratory effect on U87/GFP cells (scratch technique); type: cell-based, human
Protocol: The determination of the antimigratory activity of the compounds (I) of the invention on these same cell lines, cultured in MEM medium (Minimum Essential Medium) is performed via the “scratch” technique that consists in scratching a cell lawn using a micropipette cone. By comparison with these same cells not containing the compounds of the invention, the antimigratory effect is determined. A 100% migration is attributed to the untreated cells, whereas, as a function of the concentration of the compounds (I) of the invention, total stoppage of migration is determined by observation of the “scratch” remaining unfilled by the cell migration, by means of computer software.
as §1

mice = details: comparison value for anticancer drugs; cited from earlier work
[3] = Homo sapiens, KB, approximate value given in the description, read-out: cytotoxic activity IC50 on KB cells
[4] = Homo sapiens, KB, first value of two experiments performed in parallel, read-out: Cytotoxicity on KB cells (IC50)
[5] = Homo sapiens, KB, second value of two experiments performed in parallel, read-out: Cytotoxicity on KB cells (IC50)
[6] = first value of two experiments performed in parallel, read-out: Cytotoxicity on KB cells (IC50)
[7] = second value of two experiments performed in parallel, read-out: Cytotoxicity on KB cells (IC50)
[8] = concentration giving 80% inhibition of migration
[9] = Homo sapiens, concentration giving 50% inhibition of proliferation
[10] = concentration giving 50% inhibition of proliferation

| SMILES | Cytotoxicity on KB cells (percentage inhibition of cell viability) (KB cells; at 1 μM) [% at 1 μM] | IC50 (KB cells; [4]) [µM] | IC50 (KB cells; [5]) [µM] | IC50 (KB cells; [6]) [µM] | IC50 (KB cells; [7]) [µM] | further results |
| --- | --- | --- | --- | --- | --- | --- |
| CC(C)(C)OC(=O)N1CCCN(Cc2ccc(O)c3ncccc23)CCCN(C(=O)OC(C)(C)C)CCN(C(=O)OC(C)(C)C)CCC1 [I2, tri-tert-butyl 12-((8-hydroxyquinolin-5-yl)methyl)-1,4,8,12-tetraazacyclopentadecane-1,4,8-tricarboxylate] | 28 |  |  |  |  |  |
| CC(C)(C)OC(=O)N1CCCN(C(=O)OC(C)(C)C)CCN(C(=O)OC(C)(C)C)CCCNC(Cc2ccc(O)c3ncccc23)CC1 (stereo not shown) [I3, tri-tert-butyl 11-((8-hydroxyquinolin-5-yl)methyl)-1,4,8,12-tetraazacyclopentadecane-1,4,8-tricarboxylate] | 15 |  |  |  |  |  |
| Oc1ccc(CN2CCCNCCNCCCNCC2)c2cccnc12 [I4, 5-((1,4,8,11-tetraazacyclotetradecane-1-yl)methyl)quinolin-8-ol] | 27 |  |  |  |  |  |
| Oc1ccc(CN2CCCNCCN(Cc3ccc(CN4CCCNCCNCCCNCC4)cc3)CCCNCC2)c2cccnc12 [I7, 5-((8-(4-((1,4,8,11-tetraazacyclotetradecane-1-yl)methyl)benzyl)-1,4,8,11-tetraazacyclotetradecan-1-yl)methyl)quinolin-8-ol] | 93 | 0.122 | 0.303 |  |  | IC50 (KB cells; [3]): ~0.1 µM; Antiproliferative effect on U87/GFP cells: concentration at which activity is observed (U87/GFP cells [1]; percentage not given): 2 µM |
| Oc1ccc(CN2CCN(Cc3ccc(O)c4ncccc34)CC2)c2cccnc12 [I8, 5,5′-(piperazine-1,4-diylbis (methylene))diquinolin-8-ol] | 94 | 0.043 | 0.032 |  |  |  |
| CC(C)(C)OC(=O)N1CCCN(C(=O)OC(C)(C)C)CCN(Cc2ccc(O)c3ncccc23)CCCN(Cc2ccc(O)c3ncccc23)CC1 [I9, di-tert-butyl 4,8-bis((8-hydroxyquinolin-5-yl)methyl)-1,4,8,11-tetraazacyclotetradecane-1,11-dicarboxylate] | 77 | 0.398 | 0.639 |  |  | IC50 (KB cells; [3]): ~0.4 µM |
| Oc1ccc(CN(Cc2ccccc2)Cc2ccc(O)c3ncccc23)c2cccnc12 [I12] | 93 |  |  | 0.0015 | 0.005 | Antiproliferative effect on U87/GFP cells: percentage inhibition (U87/GFP cells [1]; at 0.5 μM): 30%; IC50 (U87/GFP cells [1]; concentration giving 30% inhibition of proliferation): 0.5 µM; Antimigratory effect on U87/GFP cells: percentage inhibition (U87/GFP cells [2]; at 2 μM): 80%; IC50 (U87/GFP cells [2]; [8]): 2 µM |
| Oc1ccc(CNCc2ccccc2)c2cccnc12 [I13, 5-((benzylamino)methyl)quinolin-8-ol] | 90 | > 1 | 1.3 |  |  | inhibition at 10 µM (U87/GFP cells [1]; Homo sapiens): 50%; IC50 (U87/GFP cells [1]; [9]): 10 µM |
| Cc1ccc(CNCc2ccc(O)c3ncccc23)cc1 [I16, 5-((4-methylbenzylamino)methyl)quinolin-8-ol] |  | 11 | 10 |  |  | Cytotoxicity on KB cells (percentage inhibition of cell viability) (KB cells; at 2 μM): 50% at 2 μM; inhibition at 2 µM (U87/GFP cells [1]; Homo sapiens): 80%; IC50 (U87/GFP cells [1]; concentration giving 80% inhibition of proliferation): 2 µM; inhibition at 2 µM (U87/GFP cells [2]; Homo sapiens, at 2 μM, read-out: Antimigratory effect on U87/GFP cells: percentage inhibition): 80%; IC50 (U87/GFP cells [2]; [8]): 2 µM |
| Oc1ccc(NCc2cccc3ccccc23)c2cccnc12 [I17, 5-(naphthalen-1-ylmethylamino)quinolin-8-ol] |  | 1 | 0.95 |  |  |  |
| Oc1ccc(N(Cc2cccc3ccccc23)c2ccc(O)c3ncccc23)c2cccnc12 [I18, 5,5′-(naphthalen-1-ylmethylazanediyl)diquinolin-8-ol] |  | 0.005 | 0.0045 |  |  | inhibition at 2 µM (U87/GFP cells [1]; Homo sapiens): 50%; IC50 (U87/GFP cells [1]; [9]): 2 µM |
| CC(NCc1ccc(O)c2ncccc12)c1ccccc1 (stereo not shown) [I33] |  |  |  | 1 | 1.1 | Antiproliferative effect on U87/GFP cells: percentage inhibition (U87/GFP cells [1]; at 0.5 μM): 50%; IC50 (U87/GFP cells [1]; [10]): 0.5 µM |
| Oc1ccc(CNCc2ccc(C(F)(F)F)cc2)c2cccnc12 [I34] |  |  |  | 10 | 9 | Antiproliferative effect on U87/GFP cells: percentage inhibition (U87/GFP cells [1]; at 5-10 μM): 50%; IC50 (U87/GFP cells [1]; [10]): 5 to 10 µM |
| Oc1ccc(CNCc2cccc(C(F)(F)F)c2)c2cccnc12 [I35] |  |  |  | 0.2 | 0.22 |  |
| CC(C)(C)OC(=O)N(Cc1cccc(C(F)(F)F)c1)Cc1ccc(O)c2ncccc12 [I36] |  |  |  | 1 | 1.1 | Antiproliferative effect on U87/GFP cells: percentage inhibition (U87/GFP cells [1]; at 5-10 μM): 50%; IC50 (U87/GFP cells [1]; [10]): 5 to 10 µM |
| CC(C)(C)OC(=O)N(Cc1ccc(C(F)(F)F)cc1)Cc1ccc(O)c2ncccc12 [I37] |  |  |  | 8 | 9 | Antiproliferative effect on U87/GFP cells: percentage inhibition (U87/GFP cells [1]; at 5-10 μM): 50%; IC50 (U87/GFP cells [1]; [10]): 5 to 10 µM |
| CC(C)(C)OC(=O)N(Cc1ccccc1)Cc1ccc(O)c2ncccc12 [I38] |  |  |  | 0.9 | 1.1 | Antiproliferative effect on U87/GFP cells: percentage inhibition (U87/GFP cells [1]; at 5-10 μM): 50%; IC50 (U87/GFP cells [1]; [10]): 5 to 10 µM |
| CC(=O)O[C@H]1C(=O)[C@@]2(C)[C@H]([C@H](OC(=O)c3ccccc3)[C@]3(O)C[C@H](OC(=O)[C@H](O)[C@@H](NC(=O)c4ccccc4)c4ccccc4)C(C)=C1C3(C)C)[C@]1(OC(C)=O)CO[C@@H]1C[C@@H]2O [Taxol] |  |  |  |  |  | LD50 (mice): about 10 mg/kg |
| Cn1nnc2c(C(N)=O)ncn2c1=O [Temodal ®, reference compound] |  |  |  |  |  | inhibition at 10 µM (U87/GFP cells [1]; Homo sapiens): 50%; IC50 (U87/GFP cells [1]; [9]): 10 µM; inhibition at 10 µM (U87/GFP cells [2]; Homo sapiens, at 10 μM, read-out: Antimigratory effect on U87/GFP cells: percentage inhibition): 50%; IC50 (U87/GFP cells [2]; Homo sapiens, concentration giving 50% inhibition of migration): 10 µM |
